# From article PMC11855827, “High-Throughput Screening of Five Compound Libraries for Anthelmintic Activity and Toxicity Leads to the Discovery of Two Flavonoid Compounds” (International Journal of Molecular Sciences, 2025)
# Read-outs that look alike come from different tables or passages of the source.
# Test system: C. elegans
# Assay: microbe, parasite or virus in culture
# Details: Caenorhabditis elegans
# [1] = 0 h, read-out: Percentage of motility inhibition 0 h, Table S2, C. elegans SS assay, 110 μM, 0 h, averages of 4 data points
# [2] = 24 h, read-out: Percentage of motility inhibition 24 h, Table S2, C. elegans SS assay, 110 μM, 24 h, averages of 4 data points
# [3] = 0 h, read-out: Percentage of motility inhibition 0 h
# [4] = 24 h, read-out: Percentage of motility inhibition 24 h
SMILES,inhibition at 110 µM [1] [%],inhibition at 110 µM [2] [%],inhibition at 110 µM [3] [%],inhibition at 110 µM [4] [%]
O=C1c2c(O)cc(O)cc2O[C@H](c2cc(O)c(O)c(O)c2)[C@H]1O [Dihydromyricetin],33,16,,
O=C(O)c1ccccc1O [Salicylic acid],12,8,,
Nc1ccn([C@H]2CC[C@@H](CO)O2)c(=O)n1 [Zalcitabine],19,20,,
Cc1c(C)[n+](Cc2ccccc2)cn1Cc1ccccc1 [Lepidiline A],5,14,,
CC1(C)CCC[C@](C)([C@H]2CC[C@]3(C)[C@@H]2[C@H](O)C[C@@H]2[C@@]4(C)CC[C@H](O)C(C)(C)[C@@H]4CC[C@]23C)O1 [Panaxadiol],39,36,,
CC1(C)CC[C@]2(C(=O)O)CC[C@]3(C)C(=CC[C@@H]4[C@@]5(C)C[C@@H](O)[C@H](O)C(C)(C)[C@@H]5CC[C@]43C)[C@@H]2C1 [Maslinic acid],0,5,,
COc1cc(O)c2c(=O)c(OC)c(-c3ccc(OC)c(O)c3)oc2c1 [Ayanin],,,0,22
O=C(O)CCC(=O)O [Succinic acid],14,15,,
CC1=C[C@H]2[C@@]3(O)[C@H](C)[C@@H](O)[C@]4(O)[C@H]([C@@H]3C=C(CO)C[C@]2(O)C1=O)C4(C)C [Phorbol],0,6,,
O=C1c2c(O)cc(O)cc2OC(c2ccc(O)c(O)c2)C1O (centres unmarked) [Taxifolin],10,14,,
CN1CCN(c2c(F)cc3c(=O)c(C(=O)O)cn4c3c2OCN4C)CC1 [Marbofloxacin],23,9,,
O=C(Nc1ncc([N+](=O)[O-])s1)c1ccccc1O [Tizoxanide],40,53,,
CC(C)(O)/C=C/C(=O)[C@](C)(O)[C@H]1[C@H](O)C[C@@]2(C)[C@@H]3CC=C4[C@@H](C[C@H](O)C(=O)C4(C)C)[C@]3(C)C(=O)C[C@]12C [Cucurbitacin D],10,22,,
Cn1c(=O)c2c(ncn2CC(=O)O)n(C)c1=O [Acefylline],0,1,,
CC[C@@]1(O)C(=O)OCc2c1cc1n(c2=O)Cc2cc3c(N)cccc3nc2-1 [9‐Aminocamptothecin],0,2,,
CN1CC[C@]23C(=O)C[C@H]4C(=CCO[C@H]5CC(=O)N(c6c(O)cccc62)[C@H]3[C@H]54)C1 [Vomicine],0,0,,
CC=CC(=O)N(CC)c1ccccc1C (mixture of isomers) [Crotamiton],23,24,,
C[C@@H]1O[C@@H](O[C@H]2[C@H](O)[C@@H](O)[C@H](OC[C@H]3O[C@@H](OC(=O)[C@]45CCC(C)(C)C[C@H]4C4=CC[C@@H]6[C@@]7(C)CC[C@H](O[C@@H]8OC[C@H](O)[C@H](O)[C@H]8O)[C@@](C)(CO)[C@@H]7CC[C@@]6(C)[C@]4(C)CC5)[C@H](O)[C@@H](O)[C@@H]3O)O[C@@H]2CO)[C@H](O)[C@H](O)[C@H]1O [Cauloside D],6,17,,
COC(=O)c1c2c(c3ccccc3c1O)OC(C)(C)C=C2 [Mollugin],1,12,,

SMILES,inhibition at 110 µM [1] [%],inhibition at 110 µM [2] [%],inhibition at 110 µM [3] [%],inhibition at 110 µM [4] [%]
CC(=O)O[C@H]1C[C@@]2(C)[C@@H](C[C@@H](O)[C@H]3[C@@]4(C)CC[C@@H](O)[C@@H](C)[C@@H]4CC[C@@]32C)/C1=C(\CCC=C(C)C)C(=O)O [Fusidic acid],0,1,,
NC(=O)c1ccccc1O [Salicylamide],2,0,,
CC1=C2C[C@H]3[C@@H](CC=C4C[C@@H](O)CC[C@@]43C)[C@@H]2CC[C@]12O[C@@H]1C[C@H](C)CN[C@H]1[C@H]2C [Cyclopamine],,,0,14
Cc1cc2cc3c(C)cc(=O)oc3c(C)c2o1 [Trioxsalen],6,7,,
COc1cc2c(cc1OC)[C@@H](Cc1ccc(Oc3cc(C[C@@H]4c5cc(OC)c(OC)cc5CCN4C)ccc3O)cc1)N(C)CC2 [Dauricine],,,2,9
O=C(CCc1ccc(O)cc1)c1c(O)cc(O)cc1O[C@@H]1O[C@H](CO)[C@@H](O)[C@H](O)[C@H]1O [Phlorizin],0,2,,
O=c1cc(-c2ccccc2)oc2cc(O)ccc12 [7‐Hydroxyflavone],1,0,,
C[C@@]12C[C@@]3(O)O[C@@H](O1)[C@]1(COC(=O)c4ccc(O)cc4)[C@@H]3C[C@]12O[C@@H]1O[C@H](COC(=O)c2ccccc2)[C@@H](O)[C@H](O)[C@H]1O [Mudanpioside C],23,41,,
COc1cc(O)c2c(=O)cc(-c3ccc(OC)c(-c4c(O)cc(O)c5c(=O)cc(-c6ccc(O)cc6)oc45)c3)oc2c1 [Ginkgetin],13,16,,
COc1ccc(-c2oc3cc(O)cc(O)c3c(=O)c2O)cc1 [Kaempferide],49,0,,
COc1cc(O)c2c(=O)cc(-c3ccc(O)c(OC)c3)oc2c1 [Velutin],11,19,,
O=C(O)c1cc(=O)c2ccccc2[nH]1 [Transtorine],,0,,
CC(C)=CCC[C@](C)(O[C@@H]1O[C@H](CO)[C@@H](O)[C@H](O)[C@H]1O)[C@H]1CC[C@]2(C)[C@@H]1[C@H](O)C[C@@H]1[C@@]3(C)CC[C@H](O[C@@H]4O[C@H](CO)[C@@H](O)[C@H](O)[C@H]4O)C(C)(C)[C@@H]3CC[C@]12C [Ginsenoside F2],0,45,,
O=C(NCNC(=O)NC1C(=O)NC(=O)N1CO)NC1C(=O)NC(=O)N1CO (centres unmarked) [Imidazolidinyl urea],28,10,,
N[C@H]1C(O)O[C@H](CO)[C@@H](O)[C@@H]1O (some centres unmarked) [Glucosamine],8,4,,
NC(=O)NC1NC(=O)NC1=O (centres unmarked) [Allantoin],0,13,,
O=c1[nH]cnc2c1ncn2[C@@H]1O[C@H](CO)[C@@H](O)[C@H]1O [Inosine],34,10,,
Nc1nc(N)c(O[C@@H]2O[C@H](CO)[C@@H](O)[C@H](O)[C@H]2O)c(=O)[nH]1 [Vicine],0,0,,
COc1cc(CNC(=O)CCCCCCC(C)C)ccc1O [Dihydrocapsaicin],0,7,,

SMILES,inhibition at 110 µM [1] [%],inhibition at 110 µM [2] [%],inhibition at 110 µM [3] [%],inhibition at 110 µM [4] [%]
CCCCCCCCC(=O)NCc1ccc(O)c(OC)c1 [Nonivamide],,0,,
C[C@H](O)C(=O)O [L-Lactic acid],16,21,,
C[C@@H]1C/C=C/C=C/C=C/C=C/[C@H](O[C@@H]2O[C@H](C)[C@@H](O)[C@H](N)[C@@H]2O)C[C@@H]2O[C@](O)(C[C@@H](O)C[C@H]3O[C@@H]3/C=C/C(=O)O1)C[C@H](O)[C@H]2C(=O)O [Natamycin],26,0,,
O=C(CBr)N1CC([N+](=O)[O-])([N+](=O)[O-])C1 [RRx‐001],19,6,,
C/C(=C\CC[C@@H](C)[C@H]1CC[C@@]2(C)C3=C(CC[C@]12C)[C@@]1(C)CCC(=O)C(C)(C)[C@@H]1CC3=O)C(=O)O [Ganoderic acid DM],,,6,1
COc1nccnc1NS(=O)(=O)c1ccc(N)cc1 [Sulfalene],2,15,,
O=C(/C=C/C=C/c1ccc2c(c1)OCO2)N1CCCCC1 [Piperine],0,21,,
CC(=O)NS(=O)(=O)c1ccc(NC(=O)c2ccccc2C(=O)O)cc1 [Phthalylsulfacetamide],32,2,,
O=c1cccc2n1C[C@H]1C[C@@H]2CN2CCCC[C@H]12 [Anagyrine],14,6,,
CC(=O)O[C@]12CCC(C(=O)O)=CC[C@]13CC[C@H]2[C@@](C)(/C=C/C=C(\C)C(=O)O)OC3=O [Pseudolaric Acid C2],0,0,,
CCN1C[C@]2(COC)[C@H](O)C[C@H](OC)[C@]34C1[C@H]([C@H](OC)[C@H]23)[C@]1(O)[C@H]2[C@@H](O)[C@](O)(C[C@H]24)[C@@H](OC)[C@@H]1O [Aconine],10,0,,
COc1c2ccoc2nc2c(O)cccc12 [Robustine],16,7,,
COc1ccc2[nH]cc(CCNC(C)=O)c2c1 [Melatonin],66,24,,
COc1cc(-c2oc3cc(O)cc(O)c3c(=O)c2O[C@@H]2O[C@H](CO[C@@H]3O[C@@H](C)[C@H](O)[C@@H](O)[C@H]3O)[C@@H](O)[C@H](O)[C@H]2O)ccc1O [Narcissin],42,25,,
C[C@]12CC[C@@H]3c4ccc(O)cc4CC[C@H]3[C@@H]1C[C@@H](O)[C@@H]2O [Estriol],2,10,,
O=c1ccc2cc3ccoc3cc2o1 [Psoralen],,,14,14
COc1cc(C2Oc3cc([C@H]4Oc5cc(O)cc(O)c5C(=O)[C@@H]4O)ccc3OC2CO)ccc1O (some centres unmarked) [Silibinin],0,0,,
CC(=O)OC(C)(C)/C=C/C(=O)[C@](C)(O)[C@H]1[C@H](O)C[C@@]2(C)[C@@H]3CC=C4[C@@H](C=C(O)C(=O)C4(C)C)[C@]3(C)C(=O)C[C@]12C [Cucurbitacin E],0,11,,
